Assay results from paper PMC7954794, “Protein context shapes the specificity of SH3 domain-mediated interactions in vivo” (Nature Communications, 2021).

Experiments:
Assay type in all cases: cell-based, Saccharomyces cerevisiae
[1] = test system: BUD14; assay: DHFR-PCA on solid medium, bait BUD14 (Fig. 1B); conditions: bait BUD14, label = prey; for medrep (log2 median colony size normalized to plate background, PCA score): 4 replicates
Text: (§1) Supplement 41467_2021_21873_MOESM8_ESM.xlsx, sheet "Fig1B" | column: medsize; medrep; Ratio; Score

[2] = test system: 575 putative partners (preys) of 22 WT SH3-containing proteins; assay: DHFR-PCA on solid medium, WT and SH3-deleted baits (Fig. 1B); parameters: key to Score: 0: SH3-independent; 1: SH3-dependent PPIs; 2: SH3-inhibited PPIs; conditions: for medrep (log2 median colony size normalized to plate background, PCA score): bait SLA1-3, DHFR-PCA, label = prey, Replicates 4 (2 for YCR009C, YDR388W, YIL033C); for Score: bait SLA1-3, label = prey
Text: To assess the requirement of SH3 domains for PPIs in vivo, we first measured binary interactions between 22 WT SH3-containing proteins (Supplementary Fig. 1A) as baits and 575 putative partners from their interconnected signaling networks using the dihydrofolate reductase protein–fragment complementation assay (DHFR-PCA) in the budding yeast Saccharomyces cerevisiae. About 33% (202/607) of the PPIs detected were described before, mostly by direct methods (Supplementary Fig. 1B, C)[11]. We repeated the experiments with baits in which the SH3s were individually replaced with a flexible linker by genome editing (SH3 domain deletion/stuffing, Fig. 1A). The stuffer DNA sequence ([…]) codes for a small flexible poly-Gly with Ser peptide ([…]) that is inspired by previous experiments[12],[13]. About a third of the SH3-containing protein interactome is qualitatively or quantitatively SH3-dependent (171 PPIs out of 607, Fig. 1B and Supplementary Fig. 1B, C). We validated the vast majority of the quantitative changes in low-throughput experiments and excluded that this is simply due to changes in protein abundance in most cases (Supplementary Fig. 1D–G). SH3-binding motifs[14] are more frequent in the SH3-dependent PPI partners when compared to sequences from random proteins, SH3-independent PPI partners or PPI partners that are stronger or gained following SH3 deletions (p values = 1.5 × 10^−17, 0.0038 and 2.1 × 10^−08, respectively; Mann–Whitney test, one-tailed, Fig. 1C). The changes we measure are therefore enriched for PPIs that depend on the direct interactions of the domains with the PPI partners.
The complete list of strains, primers, and gRNAs used in this study can be found in Supplementary Tables 1–3. All constructed yeast strains were validated by polymerase chain reaction (PCR) and confirmed by Sanger sequencing of the locus of interest. Bait strains for the DHFR-PCA experiments were constructed as follows. The genes of interest were fused at their genomic 3′ end by replacing the stop codon with a linker ([…]), the DHFR F[1,2] followed by a smaller linker (GGGGS), a 1× FLAG tag ([…]) and the NATMX4 resistance cassette via homologous recombination (all amplified from pAG25-DHFR[1,2]-linker-FLAG). The set of 615 prey strains (DHFR F[3] fusions in the BY4742 background) were retrieved from the Yeast Protein Interactome Collection[43] with the exception of 73 that were reconstructed (Supplementary Tables 1 and 2). Knockout strains were taken from the yeast knockout collection except for ABP1, BEM1, BZZ1, and SLA1, which were reconstructed by replacing the ORFs with the NATMX4 resistance cassette by homologous recombination in the BY4741 background.
Yeast SH3 domain genomic sequences were replaced by CRISPR–Cas9 genome editing. Each SH3 domain (as defined by the SMART database V8.0 except for Ysc84 SH3 (as defined by PROSITE), see Source Data for all SH3 sequences and Supplementary Table 1 for primers used) was specifically targeted by one gRNA[46]. Yeast competent cells were co-transformed with a pCAS plasmid (Addgene plasmid 60847[47]) expressing both the gRNA of interest and Streptococcus pyogenes Cas9[46] and a donor DNA sequence (stuffer) with 60 bp homology arms surrounding the SH3 DNA sequence. The Stuffer DNA was either PCR amplified or digested from a plasmid. The stuffer DNA sequence ([…]) codes for a small flexible linker ([…]) inspired by protein linkers used in structural biology[12],[13]. This type of linker is frequently used for fusing proteins without affecting the structure of the linked proteins.
The overall DHFR-PCA pipeline is based on Tarassov et al.[43] and the procedures have also been published as a visualized protocol. The screens were performed with robotically manipulated pin tools (BM5-SC1, S&P Robotics Inc.). First, the preys were cherry-picked from 96-well plates to omnitrays in a 384 format on YPD + HPH solid media. […]

[3] = test system: BEM1-1; assay: DHFR-PCA on solid medium, bait BEM1-1 (Fig. 1B); conditions: bait BEM1-1, label = prey; 2-8 replicates
Text: as §1

[4] = test system: BOI2; assay: DHFR-PCA on solid medium, bait BOI2 (Fig. 1B); conditions: bait BOI2, label = prey; 3-8 replicates
Text: as §1

[5] = test system: BEM1-2; assay: DHFR-PCA on solid medium, bait BEM1-2 (Fig. 1B); conditions: bait BEM1-2, label = prey; 2-8 replicates
Text: as §1

[6] = test system: ABP1; assay: DHFR-PCA on solid medium, bait ABP1 (Fig. 1B); conditions: bait ABP1, label = prey; 2-4 replicates
Text: as §1

[7] = test system: BZZ1-1; assay: DHFR-PCA on solid medium, bait BZZ1-1 (Fig. 1B); conditions: bait BZZ1-1, label = prey; 4 replicates
Text: Supplement 41467_2021_21873_MOESM8_ESM.xlsx, sheet "Fig1B" | column: medsize; medrep; Score

[8] = test system: BBC1; assay: DHFR-PCA on solid medium, bait BBC1 (Fig. 1B); conditions: bait BBC1, label = prey; 2-4 replicates
Text: as §1

[9] = test system: Abp1 PPIs; assay: DHFR-PCA of Abp1 SH3-swapped baits (Fig. 2B-D, S2C, S2F); conditions: number of interactions of Abp1 carrying the named SH3; sheet FigS2A-B
Text: Having determined that multiple PPIs require SH3s, we asked whether the latter establish PPI specificity independently from their host proteins by swapping domains (Fig. 2A). Using the second round of genome editing, we individually replaced Abp1 SH3 with the 27 yeast SH3s and 3 human Abp1 orthologs’ SH3s (CTTN, HCLS1, and DBNL, Fig. 2B). The reintroduction of its own SH3 (Abp1SH3 in Abp1) reconstitutes almost perfectly Abp1’s interaction profile (Kendall’s τ = 0.93, Fig. 2B). […] No homologous SH3 domain fully re-establishes the normal Abp1 PPI profile (Fig. 2B and Supplementary Fig. 2C). However, we observe a significant correlation (cophenetic correlation = 0.20, p value = 0.005, Fig. 2C) between the similarity of PPI profiles (Fig. 2B) and the sequence similarity of the SH3s. […] Nonetheless, a subset of SH3-dependent PPIs is only observed with the endogenous domain. For instance, Hua2 and App1, both well-characterized partners of Abp1[14],[18],[19], are only detected when Abp1 contains its own SH3 (WT or swapped via editing). A given SH3 may therefore not be fully replaceable with other paralogous or orthologous domains. This pattern is confirmed by cellular growth phenotypic analyses (Supplementary Fig. 2D, E). PPIs, SH3 sequence similarity, and growth profiles under stress conditions are correlated (Supplementary Fig. 2D, E). This relationship is particularly clear when analyzing growth on media supplemented with hygromycin.
The stuffing of YSC84 SH3 rendered the strain sterile and was therefore not used for this study as the assays require crosses. For genes containing two SH3s (BZZ1 and BEM1), a combination of this first stuffer with a second one ([…]) coding for a highly similar linker ([…]) was used, which allowed targeting each SH3 position independently. The two N-terminal domains of SLA1, which are separated by six nucleotides, were stuffed by a single stuffer. Cells containing pCAS were selected via the G418 resistance cassette from the plasmid on YPD plates (YPD + NAT 100 μg/ml (DHFR F[1,2] selection) + G418 200 µg/mL (Bioshop Canada)). Colonies were randomly selected and grown in YPD media without G418 to allow plasmid loss. The correct insertion of the stuffer was validated by PCR and Sanger sequencing. The SH3-swapped, -shuffled, and -mutated strains were constructed following a second CRISPR–Cas9 editing step with the same procedures. The stuffer sequences were targeted by specific gRNAs (one gRNA per stuffer) and replaced by PCR amplified specific SH3 (with 40 bp homology arms) or libraries of mutated SH3 domains for Deep Mutational Scanning (DMS) with 78 bp flanking homology regions. Validation of the SH3 domain insertions was done as we previously described except for DMS libraries (see below).
The overall DHFR-PCA pipeline is based on Tarassov et al.[43] and the procedures have also been published as a visualized protocol. The screens were performed with robotically manipulated pin tools (BM5-SC1, S&P Robotics Inc.). First, the preys were cherry-picked from 96-well plates to omnitrays in a 384 format on YPD + HPH solid media. Plates were then combined into the 1536 format on YPD + HPH. The array was constituted of 575 preys previously shown to interact physically with at least one SH3-containing protein as reported in BioGRID V3.4.16 along with 40 negative controls. The prey array comprised a border of control strains of two rows and two columns corresponding to the PPI between LSM8-DHFR F[1,2] and CDC39-DHFR F[3]. This double border was used to remove border effects. Preys are present in duplicate at a randomized position in the 1536 array (except for YAL041W which is present four times per array). Baits were crossed with two prey plates, resulting in four independent bait–prey tests for each PPI. Baits were grown in liquid YPD + NAT and then transferred on solid YPD + NAT omnitrays. They were then replicated on YPD + NAT omnitrays in 1536 array format. […]

[10] = test system: Abp1 (1xFLAG); assay: Western blot expression level of Abp1 SH3-swapped baits (Fig. S2A-B); parameters: Flag (2 bands): unit not given here; conditions: sheet FigS2A-B; for Ratio Swap/WT Flag: Flag signal relative to Abp1 WT (Abp1-1 to Abp1-4 = 1); for Flag (2 bands): Western blot Flag signal (2 bands), Abp1 WT, SH3-deleted or SH3-swapped
Experimental: Precultures of yeast cells expressing baits fused with the DHFR F[1,2]-FLAG were grown overnight at 30 °C with agitation in synthetic complete medium. The next day, cells were expanded in synthetic complete medium to reach their exponential phase (OD600 of around 1.0), pelleted, and frozen at −80 °C. The equivalent of fifty OD600 of cells was resuspended in ice-cold yeast lysis buffer (10 mM Tris-HCl pH 7.4, 150 mM NaCl, 0.5 mM EDTA (Millipore Sigma), 1% Triton X-100 (Millipore Sigma), and one cOmplete Mini Protease Inhibitor Cocktail (Millipore Sigma) per 10 mL) with […] glass beads (Millipore Sigma) and disrupted at 4 °C by 10 cycles of 2 min vortexing and 2 min cooldown. The equivalent of […] of lysed cells was used for the immunoprecipitation of the bait proteins using FLAG-M2 agarose beads (Millipore Sigma). The beads were incubated with the cell lysates for 120 min at 4 °C with a slow rotation, followed by three washes with the yeast lysis buffer.
Protein extracts and affinity-purified baits from yeast and human lysed cells were migrated on 10% polyacrylamide gels. The separated proteins were then transferred to nitrocellulose membranes. Validation of correct protein loading was done with ponceau staining of the membranes. Before the primary antibody incubations, membranes were blocked in 5% milk. Protein signals were detected on an Amersham Imager 600RGB (GE Healthcare) following the incubation of the membranes with the appropriate HRP-conjugated secondary antibodies and the Clarity Western ECL Substrate (Bio-Rad). The antibodies used in this study are M2-HRP (A8592, Sigma, 1/50,000), rabbit anti-FLAG (F7425, Sigma, 1/1000), PAK (SC-881, Santa Cruz, 1/200), p130cas/BCAR1 (SC-860, Santa Cruz, 1/200), actin (Cell Signaling Technology, 1/2000), anti-mouse HRP (Cell Signaling Technology, 1/10,000) and anti-rabbit HRP (Cell Signaling Technology, 1/10,000). The quantification of the WB signals was performed with the Amersham Imager 600 analysis software (GE Healthcare).

[11] = test system: BOI1; assay: DHFR-PCA on solid medium, bait BOI1 (Fig. 1B); conditions: bait BOI1, label = prey
Text: as §1

[12] = only significant differences showed, PPIs completely lost have a ratio of 0.1 and the gained PPIs 2.5

Substance	medrep (log2 median colony size normalized to plate background, PCA score) [1]	Ratio (SH3-deleted/WT medrep) [1, 12]	medrep (log2 median colony size normalized to plate background, PCA score) [2]	Score [2]	medrep (log2 median colony size normalized to plate background, PCA score) [3]	medrep (log2 median colony size normalized to plate background, PCA score) [4]	medrep (log2 median colony size normalized to plate background, PCA score) [5]	medrep (log2 median colony size normalized to plate background, PCA score) [6]	medrep (log2 median colony size normalized to plate background, PCA score) [7]	medrep (log2 median colony size normalized to plate background, PCA score) [8]	Interactions in Abp1 [9]	Ratio Swap/WT Flag [10]	Flag (2 bands) [10]	medrep (log2 median colony size normalized to plate background, PCA score) ([11]; 3-8 replicates)	Ratio (SH3-deleted/WT medrep) [11, 12]
YBR234C	1.638	0.1	5.2	0	2.151	2.566	2.151	5.488	4.45	5.076					
Rvs167											91	0.1645	38158		
Cdc25											27	0.6887	152280		
YDL229W	3.548		5.405	0	3.594	3.977	3.594	5.461	4.468	5.103				2.407	2.5
